Type in all cases: in vivo
Data set [1] relates to common mosquitoes (Culex pipiens pallens). The experiment in a line: Biological Test 11: mosquitoes in cup over treated aluminum plate without direct contact, mortality. The note with it: 24 h. The method, then: After 0.64 ml of a 0.05 (w/v) % acetone solution of the present compounds was dropped into an aluminum plate (bottom diameter: 7 cm), acetone was air-dried. Ten female common mosquitoes (Culex pipiens pallens) were left in a polyethylene cup (diameter: 9 cm; depth: 4.5 cm) and the cup was sealed with a 16-mesh nylon net to prevent direct contact of the mosquitoes with the compound. The cup was placed upside down on the aluminum plate at 25° C. for 120 minutes. The cup was then removed from the aluminum plate, and water and feed were given to the mosquitoes. After 24 hours, the mortality was examined (two replicate).

In data set [2] the test system is German cockroaches (Blattella germanica). The experiment in a line: Biological Test 5: mortality of male German cockroaches low sensitive to pyrethroids, treated filter paper. The note with it: 144 h. As to the method:
Filter paper of 5.5 cm in diameter was laid in the bottom of a polyethylene cup (diameter: 5.5 cm). After 0.7 ml of a 500 ppm aqueous emulsion obtained by diluting each emulsifiable concentrate prepared according to the formulation example 1 was dropped on the filter paper and approximately 30 mg of sucrose as bait was uniformly scattered. Two male German cockroaches (Blattella germanica), which were low sensitive to pyrethroids, were left in the cup with a cover. After six days, the mortality was examined.

Data set [3] has as its system houseflies (Musca domestica). The experiment in a line: Biological Test 16: topical application of compound (1) with piperonyl butoxide, mortality. The note with it: after 24 hours. The method, then:
The combination rate of piperonyl butoxide to the present compound was 0, 2, 4, 8 and 16 times. The mixture was dissolved in acetone. The acetone solution (0.5 μL) was applied to 10 female houseflies (Musca domestica) at the back thoracic region. After 24 hours, the number of dead insects was observed (2 repetition) and mortality was calculated.

The test system of data set [4] is tobacco cutworm (Spodoptera litura). The experiment in a line: Biological Test 1: mortality of larvae on impregnated artificial bait. The note with it: 144 h, read-out: mortality of the larvae. The method, then:
Emulsifiable concentrates were prepared for each of the present compounds according to the formulation example 1. Thirteen grams of artificial bait for tobacco cutworm (Spodoptera litura) were placed in a polyethylene cup (diameter: 11 cm) and impregnated with 2 ml of the 500 ppm emulsion prepared by diluting the emulsifiable concentrates with water. Ten 4-instar larvae of Spodoptera litura were put in the polyethylene cup. After 6 days, the mortality of the larvae was examined.

In data set [5] the test system is German cockroaches (Blattela germanica). The experiment in a line: Biological Test 15: repellency, treated sheet shelter. The note with it: 1.0 ml of 0.1% by weight acetone solution on filter paper; 24 hours. As to the method: The obtained sheet was folded as to be a triangular tube where one side of the triangle-shaped base was 3 cm.
In a plastic cup (650 ml volume), said triangular tube was placed as a shelter (cockroach hiding residence). Ten adult German cockroaches (Blattela germanica) were placed in said plastic cup together with food and water and then observed the number of cockroaches in the shelter 24 hours later (two replicate). Repellency (%) was calculated by the following formula: [formula]

Data set [6] deals with webbing clothes moth (Tineola bisselliella). The experiment in a line: Biological Test 13: volatile agent in cup, mortality and fabric damage. The note with it: volatile agent (100 μg on filter paper), 950 cm^3 cup, 25° C., 1 week. As to the method:
A wool muslin fabric (2 cm×2 cm in size) was placed on the bottom of a polyethylene cup (bottom diameter: 10 cm, opening part diameter: 12.5 cm, height: 9.5 cm, volume: 950 cm^3). Ten middle instar larvae of webbing clothes moth (Tineola bisselliella) were put in the cup and each of the volatile agents prepared according to the formulation example 14 was hung from the cap in the interior of the cup. After standing at 25° C. for 1 week, the cup was opened, and the mortality and the degree of damage of the wool muslin fabric by the moths were examined (two replicate).

For data set [7] the test system is unchanged. The experiment in a line: Biological Test 14: treated filter paper in cardboard box, percent moribund, fabric damage and persistence. The note with it: 36 mg on filter paper. The method, then: A filter paper (3.2 cm×3.2 cm in size) treated with 36 mg of each of the present compounds and two wool muslin fabrics (25 cm×25 cm in size) were hung down at the upper part of a corrugated cardboard box (29 cm×29 cm×29 cm in size). After standing at 25° C. and a humidity of 60% for 1 week, two tea-strainer balls holding 7 to 10 middle instar larvae of webbing clothes moth (Tineola bisselliella) and one piece of wool muslin cloth (2 cm×2 cm in size) were hung down at the upper part of the box. The box was closed with a lid. After one week, the box was opened, and the percent moribund and the degree of damage of the wool muslin cloth by the moths were examined. The same tests was repeated 2 weeks, 3 weeks and 5 weeks after the treatment to examine the persistance of the present compound. The degree of damage was represented by "-" in no damage, "+" in slight damage, "++" in heavy damage and "+++" in severe damage.

Data set [8] deals with common mosquitoes (Culex pipiens pallens). The experiment in a line: Biological Test 6: mortality of last-instar mosquito larvae in water. The note with it: 24 h, read-out: mortality of the common mosquitoes. As to the method:
0.7 ml of aqueous emulsion, obtained by diluting emulsifiable concentrate prepared for each of the present compounds according to the formulation example 1, was added to 100 ml of ion-exchanged water (concentration of active ingredient: 3.5 ppm). Twenty last-instar larvae of common mosquitoes (Culex pipiens pallens) were left in the water. After one day, the mortality of the common mosquitoes was examined.

For data set [9], the system named is southern corn rootworm (Diabrotica undecimpunctata howardi). The experiment in a line: Biological Test 3: mortality of hatched larvae and eggs. The note with it: 192 h, read-out: mortality of the hatched larvae and eggs. An excerpt: Filter paper of 5.5 cm in diameter was laid in the bottom of a polyethylene cup (diameter: 5.5 cm). […] After 8 days, the mortality of the hatched larvae and eggs was examined.

Data set [10] deals with common mosquitoes (Culex pipiens pallens). The experiment in a line: Biological Test 8: knock-down of mosquitoes by mosquito-coil. The note with it: 1.0 g of 0.3% mosquito-coil in 0.34 m^3 chamber; after 15 minutes. The method, then: Mosquito-coil containing the present compound in an amount of 0.3% was prepared according to the formulation example 10 for the present compounds. Ten female common mosquitoes (Culex pipiens pallens) were left in a glass chamber (70 cm×70 cm×70 cm: 0.34 m^3) and 1.0 g of 0.3% mosquito-coil having both ends lit was placed in the glass chamber. After 15 minutes, the rate of knocked-down mosquitoes was examined.

Data set [11] has the same test system. The experiment in a line: Biological Test 7: knock-down of mosquitoes by sprayed oil solution. The note with it: 0.7 ml of 0.1% oil solution sprayed in 0.34 m^3 chamber; after 15 minutes. As to the method:
Ten female common mosquitoes (Culex pipiens pallens) were left in a glass chamber (70 cm×70 cm×70 cm: 0.34 m^3). 0.7 ml of 0.1% oil solution prepared for each of the present compounds according to the formulation example 7 was sprayed with a spray gun at 0.8 atmospheric pressure. After 15 minutes, the rate of knocked-down mosquitoes was examined.

The values below come from patent US6048892A, “Ester compound pesticide containing thereof” (Sumitomo Chemical Company, Limited, priority 1999, dated 2000).

As to `Cc1ccc(COC(=O)[C@@H]2[C@H](/C=C(\Cl)C(F)(F)F)C2(C)C)o1` (relative stereo) [Compound (1), 5-methyl-2-furfuryl (1RS,cis)-3-(Z-2-chloro-3,3,3-trifluoroprop-1-enyl)-2,2-dimethylcyclopropanecarboxylate], the mortality at 500 µg/mL in data set [1] and in [4] was 100% in each case. The compound further showed a mortality at 500 ppm in [2] of 100%. Further, the “Mortality (%)” value is given as 30% in data set [3] (compound (1) 0.5 μg/female, piperonyl butoxide 0); 100% in data set [3] (compound (1) 0.5 + piperonyl butoxide 2.0 μg/female); 100% in data set [3] (compound (1) 0.5 + piperonyl butoxide 4.0 μg/female); 100% in [3] (compound (1) 0.5 + piperonyl butoxide 8.0 μg/female). The “Repellency (%)” value in data set [5] stood at 100%. The “degree of damage of the wool muslin fabric” value in data set [6] is listed as “no damage”. Moreover, the mortality in [6] (10080 min) stood at 100%. Further, the degree of damage entry in [7] (After 1 week), in [7] (After 2 weeks), in data set [7] (After 3 weeks) and in data set [7] (After 5 weeks) was “-” each time. Besides, in data set [8], the mortality at 3.5 ppm was at least 90%. Also, in data set [9], the mortality at 50 ppm amounted to 100%. Moreover, the “rate of knocked-down mosquitoes” value in data set [10] is recorded as 100%; in [11], at least 90%.

As a reminder, the mortality is the share of the test organisms that died.
